Here are results for 25 compounds from ChEMBL document CHEMBL1201862, “PubChem BioAssay data set” (2004).

Structures are written as SMILES. Activity calls are given as the source filed them.

In experiment [1] the target is T1, Protein RecA (Mycobacterium tuberculosis, UniProt P9WHJ3).
T1 sequence (P9WHJ3 whole entry): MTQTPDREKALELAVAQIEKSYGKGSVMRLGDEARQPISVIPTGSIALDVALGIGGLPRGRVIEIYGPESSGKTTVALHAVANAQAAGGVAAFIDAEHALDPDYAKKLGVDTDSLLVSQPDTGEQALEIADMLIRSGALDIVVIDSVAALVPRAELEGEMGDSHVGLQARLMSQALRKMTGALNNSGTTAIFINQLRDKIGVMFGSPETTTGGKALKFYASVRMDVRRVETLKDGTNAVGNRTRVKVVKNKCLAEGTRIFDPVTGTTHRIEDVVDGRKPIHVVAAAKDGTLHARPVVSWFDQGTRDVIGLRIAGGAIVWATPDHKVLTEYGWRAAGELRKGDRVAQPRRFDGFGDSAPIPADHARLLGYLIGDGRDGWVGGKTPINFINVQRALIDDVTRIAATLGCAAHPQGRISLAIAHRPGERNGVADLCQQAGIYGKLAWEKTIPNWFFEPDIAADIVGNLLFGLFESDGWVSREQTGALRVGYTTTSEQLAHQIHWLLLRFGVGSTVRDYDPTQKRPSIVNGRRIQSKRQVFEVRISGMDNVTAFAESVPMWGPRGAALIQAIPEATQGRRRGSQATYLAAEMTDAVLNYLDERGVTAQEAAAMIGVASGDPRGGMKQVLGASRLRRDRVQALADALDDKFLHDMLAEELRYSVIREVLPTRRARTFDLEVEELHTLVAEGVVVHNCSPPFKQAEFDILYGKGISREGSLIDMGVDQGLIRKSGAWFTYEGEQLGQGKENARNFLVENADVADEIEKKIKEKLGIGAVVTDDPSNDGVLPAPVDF
In words: Fluorescence Cell-Free Homogeneous Dose Retest to Identify Inhibitors of RecA-Intein Splicing Activity. [Related pubchem assays (depositor defined):AID2097, AID2223, AID489010, AID492950]. It is filed as functional.

For experiment [2], the target named is T2, Replicative DNA helicase DnaB (Mycobacterium tuberculosis, UniProt P9WMR3).
T2 sequence (P9WMR3 whole entry): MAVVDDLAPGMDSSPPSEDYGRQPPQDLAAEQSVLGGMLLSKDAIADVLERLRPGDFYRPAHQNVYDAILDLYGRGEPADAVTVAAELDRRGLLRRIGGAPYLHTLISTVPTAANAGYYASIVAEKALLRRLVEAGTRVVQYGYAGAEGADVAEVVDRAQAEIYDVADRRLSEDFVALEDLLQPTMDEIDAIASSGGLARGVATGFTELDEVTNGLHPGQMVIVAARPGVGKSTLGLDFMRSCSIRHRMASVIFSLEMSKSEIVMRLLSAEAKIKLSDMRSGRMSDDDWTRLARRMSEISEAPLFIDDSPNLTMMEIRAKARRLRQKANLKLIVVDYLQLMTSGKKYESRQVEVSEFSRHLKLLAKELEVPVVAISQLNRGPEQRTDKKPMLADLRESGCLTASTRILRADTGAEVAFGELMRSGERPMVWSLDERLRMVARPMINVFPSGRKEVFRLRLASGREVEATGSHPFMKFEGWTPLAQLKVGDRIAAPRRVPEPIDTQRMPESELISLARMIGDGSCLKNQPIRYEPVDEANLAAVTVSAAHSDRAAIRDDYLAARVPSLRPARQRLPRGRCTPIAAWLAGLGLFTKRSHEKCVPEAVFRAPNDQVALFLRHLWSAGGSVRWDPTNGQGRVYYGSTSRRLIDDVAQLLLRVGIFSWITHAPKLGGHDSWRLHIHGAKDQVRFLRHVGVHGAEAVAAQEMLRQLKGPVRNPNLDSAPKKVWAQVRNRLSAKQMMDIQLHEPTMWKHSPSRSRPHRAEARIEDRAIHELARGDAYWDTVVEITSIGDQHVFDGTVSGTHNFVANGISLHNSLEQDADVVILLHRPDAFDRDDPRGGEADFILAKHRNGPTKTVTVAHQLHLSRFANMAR
Kind of experiment: DnaB intein splicing inhibitors, dose response, biochemical, cell-free fluorescence (AID 449749). The experiment is classed as functional.

In experiment [3] the target is T3, Cytochrome P450 1A2 (Homo sapiens, UniProt P05177).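 Note: PubChem cytochrome P450 panel assay, CYP1A2 panel member.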
T3 sequence (P05177 whole entry): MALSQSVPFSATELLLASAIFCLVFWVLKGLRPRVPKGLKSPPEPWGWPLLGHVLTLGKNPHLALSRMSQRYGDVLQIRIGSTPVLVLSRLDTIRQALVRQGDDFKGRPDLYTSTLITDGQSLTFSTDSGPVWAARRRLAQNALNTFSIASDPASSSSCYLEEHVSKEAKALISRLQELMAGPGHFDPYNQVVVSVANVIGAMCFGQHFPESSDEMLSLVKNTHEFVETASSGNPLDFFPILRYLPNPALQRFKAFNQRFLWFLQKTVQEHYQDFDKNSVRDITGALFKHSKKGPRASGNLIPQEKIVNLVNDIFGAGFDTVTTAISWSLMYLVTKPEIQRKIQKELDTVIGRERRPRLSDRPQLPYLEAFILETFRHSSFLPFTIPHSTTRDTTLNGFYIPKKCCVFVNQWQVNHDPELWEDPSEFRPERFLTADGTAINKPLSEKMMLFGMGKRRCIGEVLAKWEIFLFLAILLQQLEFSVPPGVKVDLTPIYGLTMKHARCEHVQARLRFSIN

Experiment [4] has as its system INS1. Kind of experiment: beta cell apoptosis inhibitors, cytokine rescue, dose response, luminescence, retest (AID 449756).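 Note: cell death triggered by IL-1 beta plus TNF-alpha plus IFN-gamma mixture; protective hits raise ATP signal compared with cytokine alone wells.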 It is filed as functional, cell-based. Particulars: Rattus norvegicus.
Experiment [5] deals with Paired box protein Pax-8 (Homo sapiens, UniProt Q06710). In words: inhibitors of PAX8-driven TPO luciferase reporter, dose response, RMG-I cells, cherry-pick (AID 687027).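 Note: luciferase reporter driven by Pax8 target thyroperoxidase promoter measured by SteadyGlo luminescence.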 The experiment is classed as functional, cell-based.
Chain of Paired box protein Pax-8 (Q06710 whole entry): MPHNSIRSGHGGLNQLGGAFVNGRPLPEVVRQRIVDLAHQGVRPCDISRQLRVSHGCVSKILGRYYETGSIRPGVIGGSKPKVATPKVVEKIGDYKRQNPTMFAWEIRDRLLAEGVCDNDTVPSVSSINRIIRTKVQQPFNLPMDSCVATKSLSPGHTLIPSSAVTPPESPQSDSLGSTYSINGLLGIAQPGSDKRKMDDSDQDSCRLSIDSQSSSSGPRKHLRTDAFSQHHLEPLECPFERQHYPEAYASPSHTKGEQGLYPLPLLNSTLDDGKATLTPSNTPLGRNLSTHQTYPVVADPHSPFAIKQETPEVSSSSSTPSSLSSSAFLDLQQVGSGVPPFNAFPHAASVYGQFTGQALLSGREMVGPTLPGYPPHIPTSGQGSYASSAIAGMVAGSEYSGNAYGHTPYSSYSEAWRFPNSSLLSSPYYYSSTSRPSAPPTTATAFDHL
The target in experiment [6] is T4, RNA-binding protein pos-1 (Caenorhabditis elegans, UniProt G5EF15).
T4 sequence (G5EF15 whole entry): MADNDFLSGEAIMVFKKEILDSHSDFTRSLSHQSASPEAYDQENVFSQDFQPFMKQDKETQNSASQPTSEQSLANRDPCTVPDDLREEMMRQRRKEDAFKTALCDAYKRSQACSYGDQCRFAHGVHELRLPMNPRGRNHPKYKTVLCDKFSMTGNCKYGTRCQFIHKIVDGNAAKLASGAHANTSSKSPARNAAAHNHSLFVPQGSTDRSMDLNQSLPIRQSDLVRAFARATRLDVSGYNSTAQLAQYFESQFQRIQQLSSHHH
In words: inhibitors of POS-1/mex-3 RNA binding, dose response, biochemical, fluorescence polarization (AID 1964).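 Note: purified POS-1 fused to maltose binding protein made in E. coli; potency of compounds blocking POS-1 binding to fluorescent RNA.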 Background: Fluorescence polarisation rises when a labelled molecule tumbles more slowly, as on binding a larger partner.

Experiment [7] deals with T5, Zinc finger protein mex-5 (Caenorhabditis elegans, UniProt Q9XUB2).
T5 sequence (Q9XUB2 whole entry): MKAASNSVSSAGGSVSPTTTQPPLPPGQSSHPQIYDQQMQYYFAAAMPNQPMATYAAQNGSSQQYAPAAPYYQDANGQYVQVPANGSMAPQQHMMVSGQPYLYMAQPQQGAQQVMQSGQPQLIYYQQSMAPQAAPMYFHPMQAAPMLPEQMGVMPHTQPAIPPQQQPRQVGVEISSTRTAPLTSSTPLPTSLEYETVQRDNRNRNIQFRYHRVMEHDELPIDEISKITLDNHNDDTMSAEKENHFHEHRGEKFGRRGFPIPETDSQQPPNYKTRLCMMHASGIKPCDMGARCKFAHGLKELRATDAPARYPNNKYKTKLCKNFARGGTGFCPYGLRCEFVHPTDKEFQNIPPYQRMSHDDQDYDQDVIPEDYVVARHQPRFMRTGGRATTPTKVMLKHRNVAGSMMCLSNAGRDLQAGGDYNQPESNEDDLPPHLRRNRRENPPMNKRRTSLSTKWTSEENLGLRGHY
Kind of experiment: MEX-5/TCR-2 RNA interaction inhibitors, dose response, biochemical, C. elegans, fluorescence polarization (AID 1960).

Experiment [8] deals with H4. Kind of experiment: Luminescence Cell-Based Dose Response HTS to Identify Activators of 5'UTR Stem-Loop Driven Prion Protein mRNA Translation in H4 Neuroglioblastoma Cells. [Related pubchem assays: 1829 (Project Summary), 1814 (Primary HTS)]. The experiment is classed as functional. Particulars: Homo sapiens.
Experiment [9] can be described thus: Luminescence Cell-Based Dose Response HTS to Identify Activators of Luciferase Translation or Activity in H4 […] Cells. [Related pubchem assays: 1829 (Project Summary), 1814 (Primary HTS)]. The experiment is classed as functional.
Experiment [10] can be described thus: Luminescence Cell-Based Dose Retest to Confirm Inhibitors of Cancer Stem Cells. [Related pubchem assays (depositor defined):AID2717, AID2721]. The experiment is classed as functional. The following applies: Homo sapiens.

As usually defined, the EC50 is the concentration needed to bring the measured effect to its halfway point. By AC50 is commonly meant the concentration at which the activity in the assay is half-maximal.

In the case of `Cc1[nH]c2ccccc2c1CCNC(=O)c1ccc2c(c1[N+](=O)[O-])C(=O)c1ccccc1C2=O`, the EC50 in experiment [1] was 3.26 µM (active). Besides, the values for the AC50 in experiment [2] and in experiment [3] were 10.1 µM (active) and 4.47 µM (inconclusive), respectively.
In the case of `Cc1ccc(C2CC(c3ccc(C)cc3)n3nc(N)nc3N2)cc1` (stereo not given), the AC50 in experiment [4] is 28.7 µM (active).
In the case of `CCCCn1nc(C(=O)Nc2cc(C(F)(F)F)ccc2N2CCOCC2)ccc1=O`, the concentration at half-maximal activity (AC50) in [5] was 4.7 µM (active).
Take `O=C(O)c1ccc(/C=C(\c2nc3ccccc3[nH]2)c2nc3ccccc3s2)cc1`: the EC50 in experiment [1] is 21 µM (active). For the same compound, in [2], the AC50 was > 380 µM (inactive).
On to `CCn1c(CNC(=O)c2ccc(Cl)cc2)nnc1SCC(=O)N1CCOCC1`, for which the EC50 in experiment [6] and in experiment [7] was > 300 µM (not active) in each case.
With `COc1ccc(C2=CC3=CC(=O)C(C)(O)C(=O)C3=CO2)cc1` (stereo not given), the EC50 in experiment [6] is 45.6 µM (active); in experiment [7], 25.5 µM (active).
Turning to `[O-][n+]1onc2c3ccnnc3ccc21`, the EC50 in experiment [8] is > 120 µM (not active); in [9], 1.93 µM (active).
As for `CC1(C)CC(=O)C2=C(C1)OC(N)=C(C#N)C2c1ccc(OC(=O)N2CCOCC2)cc1` (stereo not given), the 50% effective concentration (EC50) in [6] and in experiment [7] was > 300 µM (not active) each time.
As for `CC1(OC(=O)C2CCCC2)C(=O)C=C2C=C(C3CC3)OC=C2C1=O` (stereo not given), the EC50 in experiment [6] and in [7] was > 300 µM (not active) each time.
For `Cc1cc(N2C(=O)C(O)=C(C(=O)c3cc4ccccc4o3)C2c2ccc([N+](=O)[O-])cc2)no1` (stereo not given), the EC50 in experiment [6] is > 300 µM (not active); in experiment [7] it was 45.4 µM (active).
With `COc1cc(OC)c2c(-c3cccc(-c4ccc(OC)c(F)c4)c3)cc(=O)oc2c1`, in experiment [5], the half-maximal activity concentration (AC50) is 1.08 µM (active).
As to `O=C(O)c1ccc(-n2c(=O)c3ccccc3c3ccccc3c2=O)cc1`, in experiment [1], the EC50 is 70.7 µM (active). The AC50 in experiment [2] is 15.8 µM (active).
With `CCc1c(C)nc(SCC(=O)NNC(=O)c2ccco2)[nH]c1=O`, the EC50 in experiment [6] is 7.26 µM (inconclusive); in [7], 10.1 µM (active).
Regarding `COc1ccc2nc(N=Nc3ccc(O)c4ccccc34)sc2c1`, the figures for the AC50 in experiment [10] and in [4] were 1.73 µM (active) and 2.09 µM (active), respectively.
As for `Cc1cccc(Nc2nc3c(s2)CCCC3)c1`, the EC50 in [8] was 3.41 µM (active); in [9] it was 2.59 µM (active).
`O=C1N=NC2=C1c1c3ccccc3c(O)n1CC2`: the concentration giving a half-maximal response (EC50) in experiment [1] is 7.63 µM (active). For the same compound, the AC50 in [2] is 15.6 µM (active).
As for `Cc1cc2nc(Sc3c([N+](=O)[O-])nc(C)n3Cc3ccccc3)[nH]c2cc1C`, in [1], the EC50 is 7.56 µM (active). Moreover, the AC50 in experiment [2] is 11.3 µM (active).
In the case of `Cc1ccc(/C=C2\C(=O)NC(=O)N(CC3CCCO3)C2=O)s1` (stereo not given), the EC50 in experiment [6] and in [7] was > 300 µM (not active) in each case.
Take `O=C1NC(=O)/C(=C2\C(=O)Nc3ccc(Br)cc32)S1`: the EC50 in experiment [6] was 17 µM (active); in experiment [7], 11 µM (active).
On to `Cc1ccc(-c2ccc(CCC(=O)O)n2-c2ccc(C(=O)O)cc2)cc1`, for which the EC50 in experiment [6] and in [7] was > 300 µM (not active) each time.
For the compound `CCOc1ccc(C(CN2CCOCC2)C(C)=O)cc1OC` (stereo not given), the AC50 in [5] was 1.68 µM (active).
Take `COC(/C(=N/O)c1ccc(Cl)cc1)c1ccccc1` (stereo not given): in experiment [4], the AC50 was 2.72 µM (active).
Same read-out and setting: for `O=C(CN1CCCc2ccccc21)N/N=C/c1ccccc1O` the value was 4.81 µM (active).
As to `O=C(N/N=C/c1ccc([N+](=O)[O-])o1)c1ccccc1NS(=O)(=O)c1cccs1`, the EC50 in experiment [1] was 125 µM (active). For the same compound, the AC50 in experiment [2] was > 380 µM (inactive).
Take `Cc1cc(/C=N/n2cnnc2)c(C)n1-c1ccc(C(=O)O)cc1`: the EC50 in [6] and in [7] was > 300 µM (not active) throughout.
